From the NIST ThermoML archive (doi:10.1021/je034223r)

What was measured:
[1] = 298.15 K; 101.33 kPa; Liquid; Vibrating tube method
[2] = refractive index (Na D-line) (dimensionless); details: 298.15 K; 101.33 kPa; Liquid; Standard Abbe refractometry
[3] = molar heat capacity at constant pressure; details: 298.15 K; 101.33 kPa; Liquid; Flow calorimetry
[4] = excess molar enthalpy (molar enthalpy of mixing); xn = mol fraction of the nth substance listed; details: 298.15 K, 101.3 kPa, Liquid, Flow calorimetry
[5] = refractive index (Na D-line) (dimensionless); xn = mol fraction of the nth substance listed; details: 298.15 K, 101.3 kPa, Liquid, refractometer
[6] = heat capacity at constant pressure per volume; xn = mol fraction of the nth substance listed; details: 298.15 K, 101.3 kPa, Liquid, Flow calorimetry
[7] = xn = mol fraction of the nth substance listed; details: 298.15 K, 101.3 kPa, Liquid, vibrating tube

C1COCO1 [1,3-dioxolane]
Details	mass density [kg/m3]	molar heat capacity at constant pressure [J/K/mol]	refractive index
[1]	1058.67	–	–
[2]	–	–	1.39797
[3]	–	121.66	–

C1COCO1 [1,3-dioxolane] + O=C1CCCCC1
[4]
Details	excess molar enthalpy [kcal/mol]
x1 = 0.1	0.0153
x1 = 0.15	0.0214
x1 = 0.2	0.0265
x1 = 0.25	0.0309
x1 = 0.3	0.0348
x1 = 0.35	0.0382
x1 = 0.4	0.0399
x1 = 0.45	0.0409
x1 = 0.5	0.041
x1 = 0.55	0.0404
x1 = 0.6	0.039
x1 = 0.65	0.0369
x1 = 0.7	0.0341
x1 = 0.75	0.0305
x1 = 0.8	0.0261
x1 = 0.85	0.0208
x1 = 0.9	0.0148

CCCCCC(C)=O [2-heptanone] + C1COCO1
Details	excess molar enthalpy [kcal/mol]	heat capacity [J/K/m3]	mass density [kg/m3]	refractive index
[4], x2 = 0.1	0.028	–	–	–
[4], x2 = 0.15	0.041	–	–	–
[4], x2 = 0.2	0.0538	–	–	–
[4], x2 = 0.25	0.0658	–	–	–
[4], x2 = 0.3	0.0764	–	–	–
[4], x2 = 0.35	0.0857	–	–	–
[4], x2 = 0.4	0.0936	–	–	–
[4], x2 = 0.45	0.0993	–	–	–
[4], x2 = 0.5	0.1031	–	–	–
[4], x2 = 0.55	0.105	–	–	–
[4], x2 = 0.6	0.104	–	–	–
[4], x2 = 0.65	0.102	–	–	–
[4], x2 = 0.7	0.0972	–	–	–
[4], x2 = 0.75	0.0894	–	–	–
[4], x2 = 0.8	0.0793	–	–	–
[4], x2 = 0.85	0.066	–	–	–
[4], x2 = 0.9	0.0486	–	–	–
[5], x2 = 0.0796	–	–	–	1.4064
[5], x2 = 0.1592	–	–	–	1.40592
[5], x2 = 0.2381	–	–	–	1.40542
[5], x2 = 0.315	–	–	–	1.40489
[5], x2 = 0.3582	–	–	–	1.40459
[5], x2 = 0.3981	–	–	–	1.4043
[5], x2 = 0.437	–	–	–	1.404
[5], x2 = 0.4767	–	–	–	1.4037
[5], x2 = 0.5147	–	–	–	1.4034
[5], x2 = 0.5562	–	–	–	1.40305
[5], x2 = 0.5892	–	–	–	1.40276
[5], x2 = 0.6363	–	–	–	1.40234
[5], x2 = 0.6694	–	–	–	1.40202
[5], x2 = 0.7034	–	–	–	1.40169
[5], x2 = 0.7886	–	–	–	1.40078
[5], x2 = 0.8717	–	–	–	1.39979
[5], x2 = 0.9502	–	–	–	1.39873
[6], x2 = 0.0872	–	1721500	–	–
[6], x2 = 0.1656	–	1720700	–	–
[6], x2 = 0.2372	–	1720000	–	–
[6], x2 = 0.3167	–	1719700	–	–
[6], x2 = 0.3868	–	1719900	–	–
[6], x2 = 0.4649	–	1720200	–	–
[6], x2 = 0.541	–	1721000	–	–
[6], x2 = 0.6252	–	1722500	–	–
[6], x2 = 0.6995	–	1724400	–	–
[6], x2 = 0.7807	–	1726700	–	–
[6], x2 = 0.8584	–	1729700	–	–
[7], x2 = 0.1058	–	–	824.42	–
[7], x2 = 0.1274	–	–	827.37	–
[7], x2 = 0.244	–	–	844.52	–
[7], x2 = 0.3122	–	–	855.72	–
[7], x2 = 0.3693	–	–	865.84	–
[7], x2 = 0.3985	–	–	871.31	–
[7], x2 = 0.4258	–	–	876.6	–
[7], x2 = 0.4304	–	–	877.56	–
[7], x2 = 0.4313	–	–	877.69	–
[7], x2 = 0.4768	–	–	887.06	–
[7], x2 = 0.5071	–	–	893.63	–
[7], x2 = 0.5125	–	–	894.83	–
[7], x2 = 0.5141	–	–	895.15	–
[7], x2 = 0.536	–	–	900.1	–
[7], x2 = 0.5433	–	–	901.8	–
[7], x2 = 0.5928	–	–	913.69	–
[7], x2 = 0.6302	–	–	923.33	–
[7], x2 = 0.6308	–	–	923.51	–
[7], x2 = 0.667	–	–	933.32	–
[7], x2 = 0.7125	–	–	946.48	–
[7], x2 = 0.785	–	–	969.65	–
[7], x2 = 0.8627	–	–	997.8	–
[7], x2 = 0.9533	–	–	1036.16	–
